# Molecular target: T1, PIP4K2C (Homo sapiens, UniProt Q8TBX8)
# T1 sequence (Q8TBX8 1-421): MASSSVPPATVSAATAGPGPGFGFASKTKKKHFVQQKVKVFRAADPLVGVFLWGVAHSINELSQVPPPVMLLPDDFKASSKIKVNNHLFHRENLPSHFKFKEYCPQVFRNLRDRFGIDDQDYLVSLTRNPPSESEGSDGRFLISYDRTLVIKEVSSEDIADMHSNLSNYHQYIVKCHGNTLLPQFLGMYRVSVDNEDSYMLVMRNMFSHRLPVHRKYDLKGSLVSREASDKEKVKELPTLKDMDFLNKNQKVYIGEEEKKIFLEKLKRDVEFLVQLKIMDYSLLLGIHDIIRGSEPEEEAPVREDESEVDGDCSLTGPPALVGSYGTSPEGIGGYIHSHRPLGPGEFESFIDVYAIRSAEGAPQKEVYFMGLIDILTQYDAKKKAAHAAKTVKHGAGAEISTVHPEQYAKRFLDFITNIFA
# Experiment: HiBiT PIP4K2C degradation assay in MOLT-4 cells (endogenous PIP4K2C C-terminally tagged with HiBiT)
# Format: cell-based
# Set-up: untagged in primary human PBMCs and monocyte-derived dendritic cells
# Conditions: 6 hours of incubation time, rather than 24 hours; MOLT-4, top concentration 10 micromolar; read-out: HiBIT-degradation MOLT4 PIP4k2C DC50 (6 hours, marked *)
# Method in brief: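 In a CRISPR-engineered MOLT-4 clone carrying HiBiT-tagged PIP4K2C, degradation was assessed after 24 or 6 hours of dosing (10 micromolar top, 3-fold steps). Luminescence from lytic HiBiT detection was fitted to obtain DC50.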
row,DC50 [µM],SMILES
1,< 0.5,"Cn1nc(C2CCC(=O)NC2=O)c2ccc(C3CCN([C@H]4CC[C@H](CC(=O)N[C@H]5CC[C@H](Nc6ncc(F)c(-c7cccc(-n8ccccc8=O)c7)n6)CC5)CC4)CC3)cc21 (stereo partly drawn) [Compound 507, trans-2-((1r,4R)-4-(4-(3-(2,6-dioxopiperidin-3-yl)-1-methyl-1H-indazol-6-yl)piperidin-1-yl)cyclohexyl)-N-((1r,4R)-4-((5-fluoro-4-(3-(2-oxopyridin-1(2H)-yl)phenyl)pyrimidin-2-yl)amino)cyclohexyl)acetamide]"
2,< 0.5,"O=C1CCC(Nc2ccc(N3CCC(N4CCC(C(=O)N[C@H]5CC[C@H](Nc6ncc(F)c(-c7cccc(N8CCOCC8)c7)n6)CC5)CC4)CC3)c(F)c2)C(=O)N1 (stereo partly drawn) [Compound 645, trans-1′-(4-((2,6-dioxopiperidin-3-yl)amino)-2-fluorophenyl)-N-(4-((5-fluoro-4-(3-morpholinophenyl)pyrimidin-2-yl)amino)cyclohexyl)-[1,4′-bipiperidine]-4-carboxamide]"
3,< 0.5,"Cn1nc(C2CCC(=O)NC2=O)c2ccc(C3CCN(CC4CCN(C(=O)[C@H]5CC[C@H](Nc6ncc(F)c(-c7cccc(-n8ccccc8=O)c7)n6)CC5)CC4)CC3)cc21 (stereo partly drawn) [Compound 385, trans-3-(6-(1-((1-(4-((5-fluoro-4-(3-(2-oxopyridin-1(2H)-yl)phenyl)pyrimidin-2-yl)amino)cyclohexane-1-carbonyl)piperidin-4-yl)methyl)piperidin-4-yl)-1-methyl-1H-indazol-3-yl)piperidine-2,6-dione]"
4,< 0.5,"O=C1CCC(Nc2ccc(C3CCN(CC4(O)CCN(C(=O)[C@H]5CC[C@H](Nc6ncc(F)c(-c7cccc(N8CCCCC8=O)c7)n6)CC5)CC4)CC3)c(F)c2)C(=O)N1 (stereo partly drawn) [Compound 579, 3-((3-fluoro-4-(1-((1-(trans-4-((5-fluoro-4-(3-(2-oxopiperidin-1-yl)phenyl)pyrimidin-2-yl)amino)cyclohexane-1-carbonyl)-4-hydroxypiperidin-4-yl)methyl)piperidin-4-yl)phenyl)amino)piperidine-2,6-dione]"

# The remaining lines, values behind:
row,SMILES,DC50 [µM]
1,"O=C1CCC(Nc2ccc(C3CCN(C4CCC(NC(=O)C5CCC(Nc6ncc(F)c(-c7cccc(-c8ccc[nH]c8=O)c7)n6)CC5)CC4)CC3)c(F)c2)C(=O)N1 [Compound 435, trans-(1r,4R)—N-((1S,4R)-4-(4-(4-(((S)-2,6-dioxopiperidin-3-yl)amino)-2-fluorophenyl)piperidin-1-yl)cyclohexyl)-4-((5-fluoro-4-(3-(2-oxo-1,2-dihydropyridin-3-yl)phenyl)pyrimidin-2-yl)amino)cyclohexane-1-carboxamide]",< 0.5
2,"O=C1CCC(Nc2ccc(C3CCN([C@H]4CC[C@H](NC(=O)[C@H]5CC[C@H](Nc6ncc(F)c(-c7cccc(N8CCOCC8=O)n7)n6)CC5)CC4)CC3)c(F)c2)C(=O)N1 (stereo partly drawn) [Compound 545, trans-N-(trans-4-(4-(4-((2,6-dioxopiperidin-3-yl)amino)-2-fluorophenyl)piperidin-1-yl)cyclohexyl)-4-((5-fluoro-4-(6-(3-oxomorpholino)pyridin-2-yl)pyrimidin-2-yl)amino)cyclohexane-1-carboxamide]",< 0.5
3,"O=C1CC[C@H](Nc2ccc(N3CCN([C@H]4CC[C@H](NC(=O)[C@H]5CC[C@H](Nc6ncc(F)c(-c7cccc(-c8ccc[nH]c8=O)c7)n6)CC5)CC4)CC3)c(F)c2)C(=O)N1 (single isomer, unassigned) [Compound 441]",< 0.5
4,"O=C1CCC(Nc2ccc(N3CCN([C@H]4CC[C@H](C(=O)N[C@H]5CC[C@H](Nc6ncc(F)c(-c7cccc(N8CCOC8=O)c7)n6)CC5)CC4)CC3)c(F)c2)C(=O)N1 (stereo partly drawn) [Compound 411, trans-(1r,4R)-4-(4-(4-((2,6-dioxopiperidin-3-yl)amino)-2-fluorophenyl)piperazin-1-yl)-N-((1r,4R)-4-((5-fluoro-4-(3-(2-oxooxazolidin-3-yl)phenyl)pyrimidin-2-yl)amino)cyclohexyl)cyclohexane-1-carboxamide]",> 5
5,"O=C1CCC(Nc2ccc(N3CCN([C@H]4CC[C@H](NC(=O)[C@H]5CC[C@H](Nc6ncc(F)c(-c7cccc(N8CCCCC8)c7)n6)CC5)CC4)CC3)c(F)c2)C(=O)N1 (stereo partly drawn) [Compound 527, trans-(1r,4R)—N-((1r,4R)-4-(4-(4-((2,6-dioxopiperidin-3-yl)amino)-2-fluorophenyl)piperazin-1-yl)cyclohexyl)-4-((5-fluoro-4-(3-(piperidin-1-yl)phenyl)pyrimidin-2-yl)amino)cyclohexane-1-carboxamide]",< 0.5
6,"Cn1nc(C2CCC(=O)NC2=O)c2ccc(C3CCN(CC4CCN(C(=O)O[C@H]5CC[C@H](Nc6ncc(F)c(-c7cccc(-n8ccccc8=O)c7)n6)CC5)CC4)CC3)cc21 (stereo partly drawn) [Compound 467, trans-4-((5-fluoro-4-(3-(2-oxopyridin-1 (2H)-yl)phenyl)pyrimidin-2-yl)amino)cyclohexyl 4-((4-(3-(2,6-dioxopiperidin-3-yl)-1-methyl-1H-indazol-6-yl)piperidin-1-yl)methyl)piperidine-1-carboxylate]",< 0.5

# Same assay, conditions: 24 hours incubation, MOLT-4, top concentration 10 micromolar; read-out: HiBIT-degradation MOLT4 PIP4k2C 24 hours DC50
row,DC50 [µM],SMILES
1,< 0.5,"O=C1CCC(Nc2ccc(N3CCC(N4CCC(C(=O)N[C@H]5CC[C@H](Nc6ncc(Cl)c(-c7cccc(-c8ccc(F)cc8)c7)n6)CC5)CC4)CC3)cc2)C(=O)N1 (stereo partly drawn) [Compound 285, trans-N-(4-((5-chloro-4-(4′-fluoro-[1,1′-biphenyl]-3-yl)pyrimidin-2-yl)amino)cyclohexyl)-1′-(4-((2,6-dioxopiperidin-3-yl)amino)phenyl)-[1,4′-bipiperidine]-4-carboxamide]"
2,< 0.5,"O=C1CCC(n2c(=O)oc3cc(C4CCN(CCC5CCN(C(=O)[C@H]6CC[C@H](Nc7ncc(F)c(-c8cccc(-c9ccc[nH]c9=O)c8)n7)CC6)CC5)CC4)ccc32)C(=O)N1 (stereo partly drawn) [Compound 368, 3-(6-(1-(2-(1-(trans-4-((5-fluoro-4-(3-(2-oxo-1,2-dihydropyridin-3-yl)phenyl)pyrimidin-2-yl)amino)cyclohexane-1-carbonyl)piperidin-4-yl)ethyl)piperidin-4-yl)-2-oxobenzo[d]oxazol-3 (2H)-yl)piperidine-2,6-dione]"
3,< 0.5,"Cn1c(=O)n(C2CCC(=O)NC2=O)c2ccc(C3CCN(CC[C@H]4CC[C@H](C(=O)N5CCC(Nc6ncc(Cl)c(-c7cccc(-c8ccc(F)cc8)c7)n6)CC5)CC4)CC3)cc21 (relative stereo) [Compound 338, trans-3-(5-(1-(2-(4-(4-((5-chloro-4-(4′-fluoro-[1,1′-biphenyl]-3-yl)pyrimidin-2-yl)amino)piperidine-1-carbonyl)cyclohexyl)ethyl)piperidin-4-yl)-3-methyl-2-oxo-2,3-dihydro-1H-benzo[d]imidazol-1-yl)piperidine-2,6-dione]"

# The remaining lines, values behind:
row,SMILES,DC50 [µM]
1,"O=C1CCC(n2c(=O)oc3cc(N4CCC(CN5CCC(NC(=O)[C@H]6CCC[C@@H](Nc7ncc(F)c(-c8cccc(-n9ccccc9=O)c8)n7)C6)CC5)CC4)ccc32)C(=O)N1 (relative stereo) [Compound 320, cis-N-(1-((1-(3-(2,6-dioxopiperidin-3-yl)-2-oxo-2,3-dihydrobenzo[d]oxazol-6-yl)piperidin-4-yl)methyl)piperidin-4-yl)-3-((5-fluoro-4-(3-(2-oxopyridin-1(2H)-yl)phenyl)pyrimidin-2-yl)amino)cyclohexane-1-carboxamide]",< 0.5
2,"O=C1CCC(n2c(=O)oc3cc(C4CCN(CC5CCN(CC(=O)N6CCC(Nc7ncc(Cl)c(-c8cccc(-c9ccc(F)cc9)c8)n7)CC6)CC5)CC4)ccc32)C(=O)N1 (stereo not drawn) [Compound 294, 3-(6-(1-((1-(2-(4-((5-chloro-4-(4′-fluoro-[1,1′-biphenyl]-3-yl)pyrimidin-2-yl)amino)piperidin-1-yl)-2-oxoethyl)piperidin-4-yl)methyl)piperidin-4-yl)-2-oxobenzo[d]oxazol-3 (2H)-yl)piperidine-2,6-dione]",< 0.5
3,"Cn1nc(C2CCC(=O)NC2=O)c2ccc(C3CCN(CC4CCN(CC(=O)N5CCC(Nc6ncc(F)c(-c7cccc(-n8ccccc8=O)c7)n6)CC5)CC4)CC3)cc21 (stereo not drawn) [Compound 315, 3-(6-(1-((1-(2-(4-((5-fluoro-4-(3-(2-oxopyridin-1(2H)-yl)phenyl)pyrimidin-2-yl)amino)piperidin-1-yl)-2-oxoethyl)piperidin-4-yl)methyl)piperidin-4-yl)-1-methyl-1H-indazol-3-yl)piperidine-2,6-dione]",< 0.5
4,"O=C1CCC(N2Cc3cc(OC4CCN(C5CCN(CCC(=O)N6CCC(Nc7ncc(Cl)c(-c8cccc(-c9ccccc9)c8)n7)CC6)CC5)CC4)ccc3C2=O)C(=O)N1 (stereo not drawn) [Compound 90, 3-(5-((1′-(3-(4-((4-([1,1′-biphenyl]-3-yl)-5-chloropyrimidin-2-yl)amino)piperidin-1-yl)-3-oxopropyl)-[1,4′-bipiperidin]-4-yl)oxy)-1-oxoisoindolin-2-yl)piperidine-2,6-dione]",< 0.5

# Same assay, conditions: read-out: HiBIT-degradation MOLT4 PIP4k2C DC50 (6 hours, marked *); 6 hours of incubation time, rather than 24 hours; MOLT-4, top concentration 10 micromolar
row,DC50 [µM],SMILES
1,< 0.5,"O=C1CCC(Nc2ccc(N3CCN(C4CCN(C(=O)O[C@H]5CC[C@H](Nc6ncc(F)c(-c7cccc(N8CCCCC8=O)c7)n6)CC5)CC4)CC3)c(F)c2)C(=O)N1 (stereo partly drawn) [Compound 675, trans-4-((5-fluoro-4-(3-(2-oxopiperidin-1-yl)phenyl)pyrimidin-2-yl)amino)cyclohexyl 4-(4-(4-((2,6-dioxopiperidin-3-yl)amino)-2-fluorophenyl)piperazin-1-yl)piperidine-1-carboxylate]"
